System: Laminin 421/521
Assay: Phage display library screening (Example 2), NEB laminin-binding peptides
Parameters: species or system human
Conditions: Laminin 421/521, not 211 and 411; combined unique sequence count, Python/R script analysis
Experimental: Phage display library screens were used to identify peptides that bind to target proteins (including specific laminin trimers) that are expressed in human nerves, as described in Table 3. These screens were also carried out to identify peptides that could bind selectively to nerves versus muscle. Such peptides could therefore be useful for systemic in-vivo labeling of nerves during fluorescence assisted surgery. Specifically, m 13 phage libraries expressing 7 or 12 random amino acid peptides, or a cyclic peptide CX7C, on the N-terminus of the minor coat protein pIII (New England Biolabs; NEB) were processed through multiple rounds of selection for binding to target proteins expressed in nerves, or to excised human nerves, nerve extracts, or muscle, as described further below.
For screening against the specified target proteins in Table 1, including LN211, LN411, LN421, and LN521, the phage library was processed by up to 4 binding and wash cycles. For selection, phage libraries were incubated for up to 24 hours at 4° C. in 96 well plates that had been coated with one of the target proteins. Plates were then washed with PBS and phage were eluted using 0.2M glycine pH 2.0. Phage supernatants where then neutralized with Tris pH 9.0 prior to plating on TGI bacteria and LB agar plates. Colonies were counted to determine titer followed by DNA preparation of pools of phage and NextGen sequencing. After rounds of selection, phage were pooled and amplified for iterative selection. Phage that were bound at each round were sequenced. NextGen sequencing of pools after 2, 3 and 4 rounds of selection was used to isolate candidate sequences that were analyzed further to identify those that specifically bound each unique target protein.
For all NEB sequence datasets, a python script was used to translate, trim, and filter the peptide sequences (see details above). A python script was used to group peptides from different assays according to laminin complex binding (laminin complex 211, 411, 421, or 521) and combine the unique sequence counts for each peptide. An R script was written to merge the peptide sequences from different data files and determine peptides that specifically bind one laminin complex and not the others, or that bind both laminin 421 and 521 but not 211 and 411.

GRTIHSM (Laminin 421/521-binding peptide)
Count: 95

GSGFRNEEHSAH (Laminin 421/521-binding peptide)
Count: 51

GSLDMGNNKQPV (Laminin 421/521-binding peptide)
Count: 62

GSPEKRT (Laminin 421/521-binding peptide)
Count: 30

GSTTHPHFGLPG (Laminin 421/521-binding peptide)
Count: 40

GWIQDTFVLGRS (Laminin 421/521-binding peptide)
Count: 40

GWTSDLSRNVRG (Laminin 421/521-binding peptide)
Count: 28

GYDLSRLWGMAS (Laminin 421/521-binding peptide)
Count: 39

GYRSFIHENWSI (Laminin 421/521-binding peptide)
Count: 68

HASNQRV (Laminin 421/521-binding peptide)
Count: 93

HPAWADFFTMSS (Laminin 421/521-binding peptide)
Count: 29

HQSLAGVPWSRH (Laminin 421/521-binding peptide)
Count: 53

HQSVTGVRSHFH (Laminin 421/521-binding peptide)
Count: 27

HSFLGAR (Laminin 421/521-binding peptide)
Count: 44

HSTYAPG (Laminin 421/521-binding peptide)
Count: 33

HTQIHRL (Laminin 421/521-binding peptide)
Count: 28

IDLSLRS (Laminin 421/521-binding peptide)
Count: 29

IDQSGLQKSGMK (Laminin 421/521-binding peptide)
Count: 29

IPVGERK (Laminin 421/521-binding peptide)
Count: 124

KALGYSLVGGEW (Laminin 421/521-binding peptide)
Count: 134

KASIAYD (Laminin 421/521-binding peptide)
Count: 30

KFADTKLTSLRY (Laminin 421/521-binding peptide)
Count: 28

KISMNRLHANFT (Laminin 421/521-binding peptide)
Count: 110

KPILWNRSLNAL (Laminin 421/521-binding peptide)
Count: 52

KQELSDNLASHR (Laminin 421/521-binding peptide)
Count: 50

LARSSIMAANNV (Laminin 421/521-binding peptide)
Count: 42

LDRNADSVRAVL (Laminin 421/521-binding peptide)
Count: 46

LGHQNGGRADMW (Laminin 421/521-binding peptide)
Count: 35

LGPSTQGAGQTR (Laminin 421/521-binding peptide)
Count: 38

LGSSRSPSSFLG (Laminin 421/521-binding peptide)
Count: 29

LGYGQGTPHRSN (Laminin 421/521-binding peptide)
Count: 30

LLAGPFR (Laminin 421/521-binding peptide)
Count: 44

LPMLRHS (Laminin 421/521-binding peptide)
Count: 32

LQSNAADHHQGM (Laminin 421/521-binding peptide)
Count: 75

MTHSAHNSQKTN (Laminin 421/521-binding peptide)
Count: 117

MTNSGAK (Laminin 421/521-binding peptide)
Count: 35

NDTGRHASGISK (Laminin 421/521-binding peptide)
Count: 32

NGHEVQSRAANR (Laminin 421/521-binding peptide)
Count: 29

NHDQGSLTRWRS (Laminin 421/521-binding peptide)
Count: 31

NNNAAMQNHGVR (Laminin 421/521-binding peptide)
Count: 51

NWTHLGVARLQP (Laminin 421/521-binding peptide)
Count: 36

QALRTNYSPLNS (Laminin 421/521-binding peptide)
Count: 32

QGHPFIY (Laminin 421/521-binding peptide)
Count: 40

QGWEFQVPARHS (Laminin 421/521-binding peptide)
Count: 30

QGWFRHS (Laminin 421/521-binding peptide)
Count: 121

QGWKDRLPIWRY (Laminin 421/521-binding peptide)
Count: 29

QINWKQADKNAD (Laminin 421/521-binding peptide)
Count: 33

QLQHVHL (Laminin 421/521-binding peptide)
Count: 28

QPTPSQIKFTRT (Laminin 421/521-binding peptide)
Count: 28

QTFGYSMFNVRT (Laminin 421/521-binding peptide)
Count: 30

QTFHEYLNPARG (Laminin 421/521-binding peptide)
Count: 37

QTLQTRH (Laminin 421/521-binding peptide)
Count: 44

QTRWDDGSYQIS (Laminin 421/521-binding peptide)
Count: 49

RALDRYLPWSPH (Laminin 421/521-binding peptide)
Count: 28

RAQAHQV (Laminin 421/521-binding peptide)
Count: 51

RLVTASMVSPSF (Laminin 421/521-binding peptide)
Count: 95

RNLHYPLNHPFM (Laminin 421/521-binding peptide)
Count: 30

SDRGKTVLHGQI (Laminin 421/521-binding peptide)
Count: 54

SFRNLEKLSLWS (Laminin 421/521-binding peptide)
Count: 50

SGWEGKTHQGVR (Laminin 421/521-binding peptide)
Count: 69

SHDVANGTSVRT (Laminin 421/521-binding peptide)
Count: 29

SLAVANTRFMIR (Laminin 421/521-binding peptide)
Count: 49

SLLSVVNTSSKS (Laminin 421/521-binding peptide)
Count: 31

SLNTTWVSPMMK (Laminin 421/521-binding peptide)
Count: 37

SLPYAASLNSVE (Laminin 421/521-binding peptide)
Count: 28

SNPKHVSSLGQM (Laminin 421/521-binding peptide)
Count: 40

SPDRTNWGWQTN (Laminin 421/521-binding peptide)
Count: 29

STNVQRA (Laminin 421/521-binding peptide)
Count: 28

SVESNSKLTMPR (Laminin 421/521-binding peptide)
Count: 29

SVLSTGTANQRH (Laminin 421/521-binding peptide)
Count: 28

SVQTPMWRSLVG (Laminin 421/521-binding peptide)
Count: 28

SVVGWAAPRTAQ (Laminin 421/521-binding peptide)
Count: 27

SWHFTGTPFMNR (Laminin 421/521-binding peptide)
Count: 28

SWQMRSY (Laminin 421/521-binding peptide)
Count: 48

SYDGTMLKQVRL (Laminin 421/521-binding peptide)
Count: 36

SYTATWSEMSRS (Laminin 421/521-binding peptide)
Count: 28

TALSHRHEAMRW (Laminin 421/521-binding peptide)
Count: 28

TAPRWTQ (Laminin 421/521-binding peptide)
Count: 30

TFAAAQAELIMV (Laminin 421/521-binding peptide)
Count: 38

TFGSGRSMPIQY (Laminin 421/521-binding peptide)
Count: 34

TILKPAAQGFAD (Laminin 421/521-binding peptide)
Count: 27

TKGIAPK (Laminin 421/521-binding peptide)
Count: 28

TLKAGTRANDGV (Laminin 421/521-binding peptide)
Count: 32

TSAVSLR (Laminin 421/521-binding peptide)
Count: 27

TTLWLDRDEALK (Laminin 421/521-binding peptide)
Count: 27

TTNGVPGHDRSP (Laminin 421/521-binding peptide)
Count: 46

TVARSTAQERSI (Laminin 421/521-binding peptide)
Count: 28

VIADQSKSAVAV (Laminin 421/521-binding peptide)
Count: 27

VPQIRIK (Laminin 421/521-binding peptide)
Count: 47

VPSYILR (Laminin 421/521-binding peptide)
Count: 30

VPVFLDQARVMK (Laminin 421/521-binding peptide)
Count: 53

VVPSWPSVHRPP (Laminin 421/521-binding peptide)
Count: 31

VYRNGGGLPLTA (Laminin 421/521-binding peptide)
Count: 34

WAFKAPQ (Laminin 421/521-binding peptide)
Count: 61

WAYTDYM (Laminin 421/521-binding peptide)
Count: 35

— patent US20240207421A1, “NERVE TARGETING PEPTIDES AND METHODS OF USE” (ALUME BIOSCIENCES, INC., priority 2020, published 2024)
